Results published in ChEMBL document CHEMBL5104095, “Proteolysis targeting chimera (PROTAC) in drug discovery paradigm: Recent progress and future challenges” (Eur J Med Chem, 2021).

Legend:
[1] = target: T1, Protein cereblon/Bcl-2-like protein 1 (Homo sapiens, UniProt Q07817+Q96SW2); experiment: PROTAC activity at CRBN/BCL-XL in human WI-38 cells assessed as induction of BCL-XL degradation incubated for 16 hrs by Western blot analysis relative to control; type: cell-based
Target sequence in this assay (Q07817 whole entry, looked up): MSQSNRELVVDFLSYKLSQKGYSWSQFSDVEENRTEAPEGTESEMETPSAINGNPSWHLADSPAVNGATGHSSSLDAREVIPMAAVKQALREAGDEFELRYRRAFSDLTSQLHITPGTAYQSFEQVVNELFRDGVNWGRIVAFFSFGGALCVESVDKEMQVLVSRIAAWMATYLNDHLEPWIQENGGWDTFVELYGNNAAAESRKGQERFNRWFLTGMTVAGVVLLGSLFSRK
Target sequence in this assay (Q96SW2 whole entry, looked up): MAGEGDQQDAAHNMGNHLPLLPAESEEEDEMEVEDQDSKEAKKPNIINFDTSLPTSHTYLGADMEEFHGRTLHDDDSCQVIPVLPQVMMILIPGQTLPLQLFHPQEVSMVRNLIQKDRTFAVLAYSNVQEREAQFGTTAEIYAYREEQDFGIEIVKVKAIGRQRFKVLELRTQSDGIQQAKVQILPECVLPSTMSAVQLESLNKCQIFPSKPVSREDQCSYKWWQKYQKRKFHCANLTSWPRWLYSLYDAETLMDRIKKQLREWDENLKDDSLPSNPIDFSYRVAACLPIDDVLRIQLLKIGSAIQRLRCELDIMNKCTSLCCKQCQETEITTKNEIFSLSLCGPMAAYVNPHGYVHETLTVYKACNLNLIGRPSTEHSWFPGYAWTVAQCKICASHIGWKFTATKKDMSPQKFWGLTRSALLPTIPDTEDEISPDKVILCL

[2] = target: T1, Protein cereblon/Bcl-2-like protein 1; experiment: PROTAC activity at CRBN/BCL-XL in human WI-38 cells assessed as induction of BCL-XL degradation incubated for 16 hrs by Western blot analysis; type: cell-based
Target sequence in this assay (Q07817 whole entry): as the sequence (Q07817 whole entry, looked up) above
Target sequence in this assay (Q96SW2 whole entry): as the sequence (Q96SW2 whole entry, looked up) above

CC1(C)CCC(c2ccccc2)=C(CN2CCN(c3ccc(C(=O)NS(=O)(=O)c4ccc(N[C@H](CCN5CCN(C(=O)CCCn6cc(COCCOCCNc7cccc8c7C(=O)N(C7CCC(=O)NC7=O)C8=O)nn6)CC5)CSc5ccccc5)c(S(=O)(=O)C(F)(F)F)c4)cc3)CC2)C1 (some centres not stated)
Emax [1]: 96.2%
EC50 [2]: 46 nM
